± gives the standard deviation of the averaged measurements.
Experiments:
Conditions in all cases: 72 h
[1] = system: Vero E6; test: drug sensitivity score (DSS) for viability; higher = more toxic; extreme values may be limits of the assay
[2] = system: HepG2; test: as above
[3] = system: Calu-3; test: as above
[4] = system: Caco-2; test: as above
[5] = system: U2OS; test: as above
[6] = system: Vero E6; test: cell viability relative to DMSO; higher = less toxic
[7] = system: HepG2; test: as above
[8] = system: Calu-3; test: as above
[9] = system: Caco-2; test: as above
[10] = system: U2OS; test: as above
[11] = system: Vero E6; test: relative viability EC50 (midpoint between 100% and the lowest measured viability); higher = less toxic
[12] = system: HepG2; test: as above
[13] = system: Calu-3; test: as above
[14] = system: Caco-2; test: as above
[15] = system: U2OS; test: as above

| SMILES | drug sensitivity score [1] | drug sensitivity score [2] | drug sensitivity score [3] | drug sensitivity score [4] | drug sensitivity score [5] | cell viability ([6]; 1 nM) [%] | cell viability ([6]; 10 nM) [%] | cell viability ([6]; 100 nM) [%] | cell viability ([6]; 1000 nM) [%] | cell viability ([6]; 10000 nM) [%] | cell viability ([7]; 1 nM) [%] | cell viability ([7]; 10 nM) [%] | cell viability ([7]; 100 nM) [%] | cell viability ([7]; 1000 nM) [%] | cell viability ([7]; 10000 nM) [%] | cell viability ([8]; 1 nM) [%] | cell viability ([8]; 10 nM) [%] | cell viability ([8]; 100 nM) [%] | cell viability ([8]; 1000 nM) [%] | cell viability ([8]; 10000 nM) [%] | cell viability ([9]; 1 nM) [%] | cell viability ([9]; 10 nM) [%] | cell viability ([9]; 100 nM) [%] | cell viability ([9]; 1000 nM) [%] | cell viability ([9]; 10000 nM) [%] | cell viability ([10]; 1 nM) [%] | cell viability ([10]; 10 nM) [%] | cell viability ([10]; 100 nM) [%] | cell viability ([10]; 1000 nM) [%] | cell viability ([10]; 10000 nM) [%] | relative viability EC50 [11] [µM] | relative viability EC50 [12] [µM] | relative viability EC50 [13] [µM] | relative viability EC50 [14] [µM] | relative viability EC50 [15] [µM] |
| --- | --- | --- | --- | --- | --- | --- | --- | --- | --- | --- | --- | --- | --- | --- | --- | --- | --- | --- | --- | --- | --- | --- | --- | --- | --- | --- | --- | --- | --- | --- | --- | --- | --- | --- | --- |
| C[C@]12CCC(=O)C=C1CC[C@@H]1[C@@H]2[C@@H](O)C[C@@]2(C)[C@H]1CC[C@]2(O)C(=O)COC(=O)CCC(=O)O [hydrocortisone-hemisuccinate] | 0 | 0 | 0 | 0 | 0 | 96.3 | 96.8 | 98.3 | 93.5 | 102 | 92.9 | 113 | 108 | 96.1 | 92.1 | 93.6 | 100 | 101 | 101 | 95.9 | 104 | 98.7 | 101 | 106 | 111 | 103 | 101 | 104 | 100 | 99.6 | > 10 | > 10 | > 10 | > 10 | > 10 |
| NS(=O)(=O)c1cc2c(cc1C(F)(F)F)NCNS2(=O)=O [hydroflumethiazide] | 0 | 0 | 0 | 0 | 0 | 105 | 92.2 | 98.5 | 97.2 | 107 | 104 | 103 | 114 | 99.3 | 96.8 | 97.1 | 101 | 96.7 | 103 | 105 | 99.5 | 99.1 | 89.7 | 98.8 | 92.2 | 102 | 101 | 95.3 | 101 | 98.2 | > 10 | > 10 | > 10 | > 10 | > 10 |
| CC(=O)[C@]1(O)Cc2c(O)c3c(c(O)c2[C@@H](O[C@H]2C[C@H](N)[C@H](O)[C@H](C)O2)C1)C(=O)c1ccccc1C3=O [idarubicin] | 22 | 32.2 | 21 | 20.7 | 22.2 | 106 | 94 | 58.2 | 6.1 | 2.9 | 94.8 | 50.3 | 29.7 | 0 | 0.1 | 104 | 90.1 | 48.6 | 27.7 | 9.7 | 103 | 96.1 | 62.1 | 10.8 | 17.4 | 100 | 86.3 | 60.7 | 1 | 0 | 0.12 | 0.016 | 0.0921 | 0.117 | 0.128 |
| COC1=C(OC)C(=O)C(CCCCCCCCCCO)=C(C)C1=O [idebenone] | 0 | 0 | 0 | 0.1 | 0 | 102 | 100 | 96.9 | 97.8 | 97.7 | 96.1 | 95.6 | 99.4 | 95.9 | 97.7 | 100 | 104 | 90.3 | 98 | 95.5 | 96.4 | 101 | 103 | 98.4 | 88.6 | 98.6 | 105 | 94.9 | 97.7 | 93.8 | > 10 | > 10 | > 10 | > 10 | > 10 |
| CC(=O)N(CC(O)CO)c1c(I)c(C(=O)NCC(O)CO)c(I)c(C(=O)NCC(O)CO)c1I (stereo not given) [iohexol] | 0 | 0 | 0 | 0 | 0 | 96.2 ± 3.1 | 101 ± 2.2 | 98.7 ± 7.5 | 99.7 ± 2.1 | 106 ± 6.8 | 96 ± 9.3 | 103 ± 4.3 | 99 ± 5.9 | 102 ± 11 | 91.7 ± 3 | 104 ± 4.5 | 95.5 ± 2.8 | 95.8 ± 1.3 | 104 ± 15 | 103.7 ± 0.99 | 95.9 ± 4.7 | 101 ± 3 | 101 ± 2.3 | 106 ± 6.4 | 96.3 ± 6 | 98 ± 4.5 | 99.2 ± 1.8 | 99.4 ± 2 | 99.9 ± 1.1 | 104.5 ± 0.14 | > 10 | > 10 | > 10 | > 10 | > 10 |
| CC(C)CC(N)=O [isovaleramide] | 0 | 0 | 0 | 0 | 0 | 102 | 101 | 102 | 97.9 | 93.1 | 103 | 99.4 | 101 | 95.5 | 101 | 113 | 103 | 97.1 | 105 | 95.4 | 106 | 92.6 | 99.1 | 99.4 | 101 | 102 | 92.8 | 99.3 | 89.1 | 96.7 | > 10 | > 10 | > 10 | > 10 | > 10 |

Source: the supplement of paper PMC13380429
